Source: patent US5721245A, “4-[3-indolyl]-1H-pyrrolone” (Hoffmann-La Roche Inc., priority 1989, dated 1998)
Where a name gives a salt, the structure may show the parent alone.

Target: protein kinase C
Assay: Inhibition of protein kinase C in vitro (protein kinase-induced incorporation of 32P from [γ-32P]ATP into histone)
Format: biochemical
Settings: concentration which reduces by 50% the protein kinase-induced incorporation of 32P from [γ-32P]ATP into histone
Description: The IC50 FIGURES in the following Table are that concentration of test compound which reduces by 50% the protein kinase-induced incorporation of ^32 P from [γ-^32 P]ATP into histone.

Compound	IC50 [nM]
CN(C)CC1Cc2c(C3=C(c4cn(C)c5ccccc45)C(=O)NC3=O)c3ccccc3n2C1 (centres unmarked) [3-[2,3-dihydro-2-(dimethylaminomethyl)-1H-pyrrolo[1,2-a]indol-9-yl]-4-(1-methyl-3-indolyl)-1H-pyrrole-2,5-dione trifluoromethanesulphonate]	20
Cn1cc(C2=C(c3c4n(c5ccccc35)CCN(C(=O)CN)C4)C(=O)NC2=O)c2ccccc21 [3-[2-(aminoacetyl)-1,2,3,4-tetrahydropyrazino[1,2-a]indol-10-yl]-4-(1-methyl-3-indolyl)-1H-pyrrole-2,5-dione hydrochloride]	50
Cn1cc(C2=C(c3c4n(c5ccccc35)CCC(CN3CCCCC3)C4)C(=O)NC2=O)c2ccccc21 (centres unmarked) [3-[6,7,8,9-tetrahydro-8-[(1-piperidino)methyl]pyrido[1,2-a]indol-10-yl]-4-(1-methyl-3-indolyl)-1H-pyrrole-2,5-dione]	30
Cn1cc(C2=C(c3c4n(c5ccccc35)CC(CCN)CC4)C(=O)NC2=O)c2ccccc21 (centres unmarked) [3-[7-(2-aminoethyl)-6,7,8,9-tetrahydropyrido[1,2-a]indol-10-yl]-4-(1-methyl-3-indolyl)-1H-pyrrole-2,5-dione hydrochloride]	20
Cn1cc(C2=C(c3c4n(c5ccccc35)CC(CSC(=N)N)CC4)C(=O)NC2=O)c2ccccc21 (centres unmarked) [3-[7-(amidinothiomethyl)-6,7,8,9-tetrahydropyrido[1,2-a]indol-10-yl]-4-(1-methyl-3-indolyl)-1H-pyrrole-2,5-dione methanesulfonate]	10
Cn1cc(C2=C(c3c4n(c5ccccc35)CC(CN)CC4)C(=O)NC2=O)c2ccccc21 (centres unmarked) [3-[7-(aminomethyl)-6,7,8,9-tetrahydropyrido[1,2-a]indol-10-yl]-4-(1-methyl-3-indolyl)-1H-pyrrole-2,5-dione]	15
Cn1cc(C2=C(c3c4n(c5ccccc35)CCC(CN)C4)C(=O)NC2=O)c2ccccc21 (centres unmarked) [3-[8-(aminomethyl)-6,7,8,9-tetrahydropyrido[1,2-a]indol-10-yl]-4-(1-methyl-3-indolyl)-1H-pyrrole-2,5-dione hydrochloride]	8
Cn1cc(C2=C(c3c4n(c5ccccc35)CCC(C(=N)N)C4)C(=O)NC2=O)c2ccccc21 (centres unmarked) [3-[8-amidino-6,7,8,9-tetrahydropyrido[1,2-a]indol-10-yl]-4-(1-methyl-3-indolyl)-1H-pyrrole-2,5-dione hydrochloride]	60
